This is an account of results in patent US12606541B2, “PPARg modulators and methods of use” (Eisai R&D Management Co., Ltd., priority 2020, dated 2026).

For assay [1], the target named is T1, His6-TEV-PPARγ-(234-505) (Homo sapiens, UniProt P37231).
T1 construct: The His6-TEV-PPARγ-(234-505) protein for assay was expressed and purified; TEV cleavage site (N); made in house
T1 sequence (P37231 234-505): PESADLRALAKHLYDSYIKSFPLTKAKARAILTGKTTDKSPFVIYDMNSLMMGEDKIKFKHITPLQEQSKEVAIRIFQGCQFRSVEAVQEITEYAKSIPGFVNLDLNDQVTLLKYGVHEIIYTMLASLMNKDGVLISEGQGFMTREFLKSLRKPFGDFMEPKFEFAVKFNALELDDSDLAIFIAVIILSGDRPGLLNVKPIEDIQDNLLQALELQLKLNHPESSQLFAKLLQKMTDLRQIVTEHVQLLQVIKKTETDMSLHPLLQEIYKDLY
The assay is described as follows: TR-FRET Assay to Measure Co-R Peptide Recruitment to PPARγ. The class given is biochemical. Conditions: Co-R peptide (SMRT-ID2) recruitment; top final concentration 20 μM; read-out: TR-FRET i-Ag; AC50. Summed up:
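His-tagged PPARγ (or controls) was preincubated with compound for 20 minutes at room temperature, then 5 nM anti-His terbium antibody and 200 nM FITC-labeled SMRT-ID2 corepressor peptide (final) were added for a further hour. TR-FRET signal was normalized to percent response using 500 nM T0070907 and DMSO controls.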
In general terms: In TR-FRET formats the signal depends on donor and acceptor labels being close together.

The test system of assay [2] is UM-UC-9 engineered cells. The assay is described as follows: Cell proliferation / short-term viability assay, CellTiter-Glo 144 h. Format: cell-based, human. The conditions noted are these: read-out: CTGlo 144 h UMUC9.5, G150. Summed up: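 UM-UC-9 engineered assay-ready cells seeded at 500 cells/well in high-glucose DMEM/10% FBS, treated from dose-response plates, grown at 37° C, 5% CO2. CellTiter-Glo 2.0 luminescence read on day 7, with a day-0 pretreatment plate as T0 reference and DMSO wells as negative control.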
Background: In ATP-based viability assays light output follows the ATP content of the culture.

Like-named read-outs stand apart in the source and are kept apart here. Where only a bound is given, the exact number is not on record here.

Consider `Cc1cc(-c2cc(C(=O)N3CCC(C(=O)NCc4cccc(Cl)c4)CC3)n[nH]2)c(Cl)cn1` [Example 262, 1-[5-(5-chloro-2-methylpyridin-4-yl)-1H-pyrazole-3-carbonyl]-N-[(3-chlorophenyl)methyl]piperidine-4-carboxamide], for which the AC50 in assay [1] was 0.0292 µM. The IC50 in assay [2] (Homo sapiens, UM-UC-9, 144 h) was determined as 0.332 µM.

As for `COc1cc(-c2cc(C(=O)N3CCC(C(=O)NC4CCC(C)(O)CC4)CC3)n[nH]2)c(Cl)cn1` (centres unmarked) [Example 264-A], the AC50 in assay [1] is 0.658 µM. Also, in assay [2] (Homo sapiens, UM-UC-9, 144 h), the IC50 came to 4.89 µM.

On to `COc1cc(-c2cc(C(=O)N3CCC(C(=O)NC4c5ccccc5OC4C)CC3)n[nH]2)c(Cl)cn1` (centres unmarked) [Example 265, 1-(5-(5-chloro-2-methoxypyridin-4-yl)-1H-pyrazole-3-carbonyl)-N-(2-methyl-2,3-dihydrobenzofuran-3-yl)piperidine-4-carboxamide], for which, in assay [1], the AC50 was found to be 0.0877 µM. In addition, the IC50 in assay [2] (Homo sapiens, UM-UC-9, 144 h) was found to be 0.458 µM.

For the molecule `Cc1cc(-c2cc(C(=O)N3CCC(C(=O)NCc4cccc(Cl)c4)CC3)n[nH]2)c(F)cn1` [Example 267, N-[(3-chlorophenyl)methyl]-1-[5-(5-fluoro-2-methylpyridin-4-yl)-1H-pyrazole-3-carbonyl]piperidine-4-carboxamide], the AC50 in assay [1] stood at 0.0142 µM. Also, in assay [2] (Homo sapiens, UM-UC-9, 144 h), the IC50 is 0.104 µM.

Consider `Cc1cc(-c2cc(C(=O)N3[C@@H]4CC[C@H]3C[C@H](C(=O)NCc3cccc(Cl)c3)C4)n[nH]2)c(F)cn1` [Example 268, (1R,3S,5S)—N-[(3-chlorophenyl)methyl]-8-[5-(5-fluoro-2-methylpyridin-4-yl)-1H-pyrazole-3-carbonyl]-8-azabicyclo[3.2.1]octane-3-carboxamide], for which the AC50 in assay [1] was 0.007 µM. For the same molecule, in assay [2] (Homo sapiens, UM-UC-9, 144 h), the IC50 was found to be 0.0365 µM.

`Cc1cc(-c2cc(C(=O)N3CCC(C(=O)NCc4ccc5[nH]nc(F)c5c4)CC3)n[nH]2)c(F)cn1` [Example 269, N-[(3-fluoro-1H-indazol-5-yl)methyl]-1-[5-(5-fluoro-2-methylpyridin-4-yl)-1H-pyrazole-3-carbonyl]piperidine-4-carboxamide]: in assay [1], the AC50 was 0.012 µM. In addition, the IC50 in assay [2] (Homo sapiens, UM-UC-9, 144 h) came out at 0.16 µM.

`CCc1cc(-c2cc(C(=O)N3CCC(C(=O)NCc4cccc(Cl)c4)CC3)n[nH]2)c(Cl)cn1` [Example 270, 1-[5-(5-chloro-2-ethylpyridin-4-yl)-1H-pyrazole-3-carbonyl]-N-[(3-chlorophenyl)methyl]piperidine-4-carboxamide]: in assay [1], the AC50 stood at 0.0234 µM. The IC50 in assay [2] (Homo sapiens, UM-UC-9, 144 h) is 0.306 µM.

Consider `Cc1cc(-c2cc(C(=O)N3CCC(C(=O)NCc4ccc5[nH]ccc5c4)CC3)n[nH]2)c(F)cn1` [Example 271, 1-[5-(5-fluoro-2-methylpyridin-4-yl)-1H-pyrazole-3-carbonyl]-N-(1H-indol-5-ylmethyl)piperidine-4-carboxamide], for which the AC50 in assay [1] amounted to 0.0061 µM. In addition, in assay [2] (Homo sapiens, UM-UC-9, 144 h), the IC50 worked out at 0.0303 µM.

Turning to `COc1cc(-c2cc(C(=O)N3CCC(C(=O)NCc4ccc5[nH]c(C)c(C)c5c4)CC3)n[nH]2)c(F)cn1` [Example 272, N-[(2,3-dimethyl-1H-indol-5-yl)methyl]-1-[5-(5-fluoro-2-methoxypyridin-4-yl)-1H-pyrazole-3-carbonyl]piperidine-4-carboxamide], the AC50 in assay [1] worked out at 0.009 µM. In assay [2] (Homo sapiens, UM-UC-9, 144 h), the IC50 was determined as 0.111 µM.

For `COc1cc(-c2cc(C(=O)N3CC[C@@H](C(=O)NCc4cccc(Cl)c4)C[C@H]3C)n[nH]2)c(Cl)cn1` [Example 273, (2R,4R)-1-(5-(5-chloro-2-methoxypyridin-4-yl)-1H-pyrazole-3-carbonyl)-N-(3-chlorobenzyl)-2-methylpiperidine-4-carboxamide], the AC50 in assay [1] turned out to be 0.0267 µM. For the same molecule, the IC50 in assay [2] (Homo sapiens, UM-UC-9, 144 h) came to 0.213 µM.

As for `COc1cc(-c2cc(C(=O)N3CCC(C(=O)NC4CCC5(CCO5)CC4)CC3)n[nH]2)c(F)cn1` (centres unmarked) [Example 276, 1-(5-(5-fluoro-2-methoxypyridin-4-yl)-1H-pyrazole-3-carbonyl)-N-(1-oxaspiro[3.5]nonan-7-yl)piperidine-4-carboxamide], the AC50 in assay [1] is 0.813 µM. For the same molecule, the IC50 in assay [2] (Homo sapiens, UM-UC-9, 144 h) was > 4 µM.

With `COc1cc(-c2cc(C(=O)N3[C@@H]4CC[C@H]3C[C@H](C(=O)NCc3ccc5c(c3)c(F)nn5C)C4)n[nH]2)c(F)cn1` [Example 277, (1R,3s,5S)—N-((3-fluoro-1-methyl-1H-indazol-5-yl)methyl)-8-(5-(5-fluoro-2-methoxypyridin-4-yl)-1H-pyrazole-3-carbonyl)-8-azabicyclo[3.2.1]octane-3-carboxamide], the AC50 in assay [1] was found to be 0.0033 µM. Besides, in assay [2] (Homo sapiens, UM-UC-9, 144 h), the IC50 was 0.029 µM.

As for `COc1cc(-c2cc(C(=O)N3CCC(C(=O)NCc4ccc5c(c4)C(C)(C)CN5)CC3)n[nH]2)c(F)cn1` [Example 278, N-((3,3-dimethylindolin-5-yl)methyl)-1-(5-(5-fluoro-2-methoxypyridin-4-yl)-1H-pyrazole-3-carbonyl)piperidine-4-carboxamide], the AC50 in assay [1] was found to be 0.0751 µM. In addition, the IC50 in assay [2] (Homo sapiens, UM-UC-9, 144 h) was found to be 0.478 µM.

As to `Cc1cc(-c2cc(C(=O)N3[C@@H]4CC[C@H]3C[C@H](C(=O)N[C@H]3CC[C@@](O)(C(F)(F)F)CC3)C4)n[nH]2)ncn1` [Example 279, (1R,3s,5S)—N-((1r,4R)-4-hydroxy-4-(trifluoromethyl)cyclohexyl)-8-(5-(6-methylpyrimidin-4-yl)-1H-pyrazole-3-carbonyl)-8-azabicyclo[3.2.1]octane-3-carboxamide], the AC50 in assay [1] stood at 0.0246 µM. Further, the IC50 in assay [2] (Homo sapiens, UM-UC-9, 144 h) stood at 0.29 µM.

Take `COc1cc(-c2cc(C(=O)N3C4COCC3CC(C(=O)N[C@H]3CC[C@@](O)(C(F)(F)F)CC3)C4)n[nH]2)c(F)cn1` (some centres unmarked) [Example 282, 9-(5-(5-fluoro-2-methoxypyridin-4-yl)-1H-pyrazole-3-carbonyl)-N-((1r,4r)-4-hydroxy-4-(trifluoromethyl)cyclohexyl)-3-oxa-9-azabicyclo[3.3.1]nonane-7-carboxamide]: in assay [1], the AC50 is 0.059 µM. For the same molecule, in assay [2] (Homo sapiens, UM-UC-9, 144 h), the IC50 is 0.293 µM.

For the molecule `Cc1cc(-c2cc(C(=O)N3[C@@H]4CC[C@H]3C[C@H](C(=O)N[C@H]3CC[C@@](O)(C(F)(F)F)CC3)C4)n[nH]2)c(F)cn1` [Example 283, (1R,3R,5S)-8-[5-(5-fluoro-2-methylpyridin-4-yl)-1H-pyrazole-3-carbonyl]-N-[(1r,4r)-4-hydroxy-4-(trifluoromethyl)cyclohexyl]-8-azabicyclo[3.2.1]octane-3-carboxamide], the AC50 in assay [1] came out at 0.0075 µM. Moreover, the IC50 in assay [2] (Homo sapiens, UM-UC-9, 144 h) is 0.0708 µM.

On to `Cc1cc(-c2cc(C(=O)N3[C@@H]4CC[C@H]3C[C@H](C(=O)NCc3ccc5[nH]nc(F)c5c3)C4)n[nH]2)c(F)cn1` [Example 284, (1R,3s,5S)—N-((3-fluoro-1H-indazol-5-yl)methyl)-8-(5-(5-fluoro-2-methylpyridin-4-yl)-1H-pyrazole-3-carbonyl)-8-azabicyclo[3.2.1]octane-3-carboxamide], for which, in assay [1], the AC50 worked out at 0.0023 µM. In addition, the IC50 in assay [2] (Homo sapiens, UM-UC-9, 144 h) is 0.0121 µM.

As to `COc1cc(-c2cc(C(=O)N3[C@@H]4CC[C@H]3C[C@H](C(=O)NCc3ccc5[nH]c(C)c(C)c5c3)C4)n[nH]2)c(F)cn1` [Example 285, (1R,3R,5S)—N-[(2,3-dimethyl-1H-indol-5-yl)methyl]-8-[5-(5-fluoro-2-methoxypyridin-4-yl)-1H-pyrazole-3-carbonyl]-8-azabicyclo[3.2.1]octane-3-carboxamide], the AC50 in assay [1] came out at 0.0079 µM. For the same molecule, the IC50 in assay [2] (Homo sapiens, UM-UC-9, 144 h) stood at 0.0163 µM.

For the molecule `COc1cc(-c2cc(C(=O)N3[C@@H]4CC[C@H]3C[C@H](C(=O)NC3CC[Si](C)(C)CC3)C4)n[nH]2)c(F)cn1` [Example 291, (1R,3s,5S)—N-(1,1-dimethylsilinan-4-yl)-8-(5-(5-fluoro-2-methoxypyridin-4-yl)-1H-pyrazole-3-carbonyl)-8-azabicyclo[3.2.1]octane-3-carboxamide], the AC50 in assay [1] came out at 0.0696 µM. For the same molecule, the IC50 in assay [2] (Homo sapiens, UM-UC-9, 144 h) came to 0.15 µM.

In the case of `COc1cc(-c2cc(C(=O)N3CCC(C(=O)N[C@@H]4CCN(c5ccccc5F)C4)CC34CC4)n[nH]2)c(F)cn1` (stereo partly drawn) [Example 296, 4-[5-(5-fluoro-2-methoxypyridin-4-yl)-1H-pyrazole-3-carbonyl]-N—[(R)-1-(2-fluorophenyl)pyrrolidin-3-yl]-4-azaspiro[2.5]octane-7-carboxamide], in assay [1], the AC50 came out at 0.0198 µM. Besides, the IC50 in assay [2] (Homo sapiens, UM-UC-9, 144 h) came to 0.0041 µM.

As to `Cc1cc(-c2cc(C(=O)N3CC[C@H](C(=O)NC4CCC5(CCO5)CC4)CC34CC4)n[nH]2)ncn1` (stereo partly drawn) [Example 300-B, (S)-4-(5-(6-methylpyrimidin-4-yl)-1H-pyrazole-3-carbonyl)-N-(1-oxaspiro[3.5]nonan-7-yl)-4-azaspiro[2.5]octane-7-carboxamide], the AC50 in assay [1] was 0.995 µM. Besides, the IC50 in assay [2] (Homo sapiens, UM-UC-9, 144 h) amounted to 1.51 µM.

For `COc1cc(-c2nc(C(=O)N3[C@@H]4CC[C@H]3CC(C(=O)NC3CCC(O)(C(F)(F)F)CC3)C4)n[nH]2)c(F)cn1` (stereo partly drawn) [Example 305, (1R,3S,5S)-8-[5-(5-fluoro-2-methoxypyridin-4-yl)-1H-1,2,4-triazole-3-carbonyl]-N-[(1r,4r)-4-hydroxy-4-(trifluoromethyl)cyclohexyl]-8-azabicyclo[3.2.1]octane-3-carboxamide], in assay [1], the AC50 was determined as 0.217 µM. In addition, the IC50 in assay [2] is 2.27 µM.
